The structures appear in SMILES notation. Read-outs that look alike come from different tables or passages of the source.

For data set [1], the target named is HIV protease (Human immunodeficiency virus type 1 group M subtype B, UniProt P04585). In words: Enzymatic (fluorometric FRET) assay for determining the inhibition constant (Ki). It counts as biochemical. The conditions noted are these: EDANS/DABCYL substrate, equation of Henderson. The source says:
Enzymatic assay for determining the inhibition constant (Ki) of synthetic compounds targeting the HIV protease
This is a fluorometric assay based on the cleavage by protease of a substrate carrying a donor group (EDANS) and an acceptor group (DABCYL) on each side of the cleavage site, interacting together through fluorescence resonance energy transfer (FRET) as described by Matayoshi et al. (Science 247:[…], 1990).
After calculation of Vo and Vi, the inhibition constant (Ki) of the compound is determined using the equation of Henderson: (Vo)/(Vi) = 1 + ([I])/(Kiapp) Where Ki = (Kiapp)/((1 + [S])/(Km)) [formula] where Vo = the enzyme's initial velocity Vi = the enzyme velocity in the presence of the inhibitory compound, [I] = inhibitor concentration, [S] = substrate concentration, Km = Michaelis-Menten constant and Kiapp = apparent Ki
Graphs are traced and the Ki determined using GraphPad Prism software v. 3.0.

The subject of data set [2] is laboratory viral strain NL4.3. In words: Anti-viral assay in vitro (MTT assay on infected MT-4 cells). It counts as cell-based, HIV-1. The conditions noted are these: Human immunodeficiency virus 1, MT4, 144 h, infected MT-4 cells incubated six days, average of at least two determinations. From the text:
(§1) Anti-viral and cytotoxicity assays in vitro
(§2) We also use some WT clinical strains.

Data set [3] has as its system MT-4. Kind of data set: Cytotoxicity assay in vitro (MTT assay, virus omitted). It counts as cell-based. The conditions noted are these: cell culture IC50, same MTT assay with virus omitted; average of at least two determinations.
From the text: as §1, §2

Turning to `Cc1ccc(S(=O)(=O)N(CC(C)C)[C@@H](CCCCNC(=O)N(Cc2ccccc2)Cc2cccc(N)c2)C(=O)O)cc1` [Example 58, Nα-isobutyl-Nα-(4-methylbenzenesulfonyl)-N∈-[N'-(3-aminobenzyl)-N'-benzylaminocarbonyl]-L-lysine], the Ki in data set [1] (read-out: Ki) is > 300 nM.

For the compound `Cc1ccc(S(=O)(=O)N(CC(C)C)[C@H](CO)CCCCNC(=O)N(Cc2ccccc2)Cc2ccccc2[N+](=O)[O-])cc1` [Example 59, (2S) 2-N-isobutyl-2-N-(4-methylbenzenesulfonyl)-6-N-[N'-benzyl-N'-(2-nitrobenzyl)aminocarbonyl]-2,6-diaminohexanol], the response in data set [2] was half-maximal at 385 nM (EC50). In data set [3], the CCIC50 is 4.6 µM.

On to `CC(C)CN([C@H](CO)CCCCNC(=O)N(Cc1cccnc1)Cc1cccc(F)c1)S(=O)(=O)c1ccc(N)cc1` [Example 72, (2S) 2-N-(4-aminobenzenesulfonyl)-2-N-isobutyl-6-N-[N'-(3-fluorobenzyl)-N'-(3-picolyl)aminocarbonyl]-2,6-diaminohexanol], for which the Ki in data set [1] (read-out: Ki) was > 300 nM.

In the case of `CC(C)CN([C@H](CO)CCCCNC(=O)N(Cc1cccnc1)Cc1ccccc1F)S(=O)(=O)c1ccc(N)cc1` [Example 73, (2S) 2-N-(4-aminobenzenesulfonyl)-2-N-isobutyl-6-N-[N'-(2-fluorobenzyl)-N'-(3-picolyl)aminocarbonyl]-2,6-diaminohexanol], in data set [1] (read-out: Ki), the Ki is > 300 nM.

Take `CC(C)CN([C@H](CO)CCCCNC(=O)N(Cc1ccccc1)Cc1ccsc1)S(=O)(=O)c1ccc(N)cc1` [Example 76, (2S) 2-N-(4-aminobenzenesulfonyl)-2-N-isobutyl-6-N-[N'-benzyl-N'-(3-thiophenemethyl)aminocarbonyl]-2,6-diaminohexanol]: in data set [1] (read-out: Ki), the Ki was 11 nM.

On to `COc1ccc(CNC(=O)NCCCC[C@@H](CO)N(CC(C)C)S(=O)(=O)c2ccc(N)cc2)cc1` [Example 77, (2S) 2-N-(4-aminobenzenesulfonyl)-2-N-isobutyl-6-N-(N'-4-methoxybenzylaminocarbonyl)-2,6-diaminohexanol], for which the Ki in data set [1] (read-out: Ki) was > 300 nM.

In the case of `COc1cccc(OC)c1CNC(=O)NCCCC[C@@H](CO)N(CC(C)C)S(=O)(=O)c1ccc(N)cc1` [Example 78, (2S) 2-N-(4-aminobenzenesulfonyl)-2-N-isobutyl-6-N-(N'-2,6-dimethoxybenzylaminocarbonyl)-2,6-diaminohexanol], in data set [1] (read-out: Ki), the inhibitory constant (Ki) was > 300 nM.

For the compound `COc1ccc(CNC(=O)NCCCC[C@@H](CO)N(CC(C)C)S(=O)(=O)c2ccc(N)cc2)c(OC)c1` [Example 79, (2S) 2-N-(4-aminobenzenesulfonyl)-2-N-isobutyl-6-N-(N'-2,4-dimethoxybenzylaminocarbonyl)-2,6-diaminohexanol], the Ki in data set [1] (read-out: Ki) was > 300 nM.

In the case of `COc1cc(CNC(=O)NCCCC[C@@H](CO)N(CC(C)C)S(=O)(=O)c2ccc(N)cc2)cc(OC)c1` [Example 80, (2S) 2-N-(4-aminobenzenesulfonyl)-2-N-isobutyl-6-N-(N'-3,5-dimethoxybenzylaminocarbonyl)-2,6-diaminohexanol], the Ki in data set [1] (read-out: Ki) is > 300 nM.

In data set [1] (Ki), `CC(C)CCN([C@H](CO)CCCCNC(=O)N(Cc1ccccc1)Cc1ccccc1)S(=O)(=O)c1ccc(N)cc1` [Example 86, (2S) 2-N-(4-aminobenzenesulfonyl)-2-N-(3-methylbutyl)-6-N-(N'-N'-dibenzylaminocarbonyl)-2,6-diaminohexanol] showed an inhibition constant (Ki) of 5.8 nM.

Consider `CC(C)CCN([C@H](CO)CCCCNC(=O)N(Cc1ccc2c(c1)OCO2)Cc1cccs1)S(=O)(=O)c1ccc(N)cc1` [Example 87, (2S) 2-N-(4-aminobenzenesulfonyl)-2-N-(3-methylbutyl)-6-N-[N'-(2-thiophenemethyl)-N'-piperonylaminocarbonyl]-2,6-diaminohexanol], for which, in data set [1] (Ki), the Ki was found to be 1.4 nM.

`COc1ccc(CN(Cc2ccc3c(c2)OCO3)C(=O)NCCCC[C@@H](CO)N(CCC(C)C)S(=O)(=O)c2ccc(N)cc2)cc1` [Example 88, (2S) 2-N-(4-aminobenzenesulfonyl)-2-N-(3-methylbutyl)-6-N-[N'-(4-methoxybenzyl)-N'-piperonylaminocarbonyl]-2,6-diaminohexanol]: the Ki in data set [1] (Ki) stood at 2.9 nM.

Regarding `CC(C)CN([C@H](CO)CCCCNC(=O)N(Cc1ccccc1)Cc1cccc2c1OCO2)S(=O)(=O)c1ccc(N)cc1` [Example 91, (2S) 2-N-(4-aminobenzenesulfonyl)-2-N-isobutyl-6-N-[N'-benzyl-N'-(2,3-methylenedioxy)benzylaminocarbonyl]-2,6-diaminohexanol], the affinity in data set [1] (Ki), expressed as Ki, was 5.4 nM.

The compound `CC(C)CN([C@H](CO)CCCCNC(=O)N(Cc1ccccc1)Cc1ccc(F)cc1F)S(=O)(=O)c1ccc(N)cc1` [Example 93, (2S) 2-N-(4-aminobenzenesulfonyl)-2-N-isobutyl-6-N-[N'-benzyl-N'-(2,4-difluorobenzyl)aminocarbonyl]-2,6-diaminohexanol] gave a Ki in data set [1] (Ki) of 12 nM.

`CC(C)CCN([C@H](CO)CCCCNC(=O)N(Cc1ccccc1)Cc1cccc2c1OCO2)S(=O)(=O)c1ccc(N)cc1` [Example 96, (2S) 2-N-(4-aminobenzenesulfonyl)-2-N-(3-methylbutyl)-6-N-[N'-benzyl-N'-(2,3-methylenedioxy)benzylaminocarbonyl]-2,6-diaminohexanol]: in data set [1] (Ki), the Ki was 4 nM.

For the compound `CCC(C)CN([C@H](CO)CCCCNC(=O)N(Cc1ccccc1)Cc1ccc2c(c1)OCO2)S(=O)(=O)c1ccc(N)cc1` (stereo partly drawn) [Example 98, (2S) 2-N-(4-aminobenzenesulfonyl)-2-N-(2-methylbutyl)-6-N-[N'-benzyl-N'-piperonylaminocarbonyl]-2,6-diaminohexanol], the Ki in data set [1] amounted to 13 nM.

With `CCC(C)CN(C(CO)CCCCNC(=O)N(Cc1ccc(OC)cc1)Cc1ccc2c(c1)OCO2)S(=O)(=O)c1ccc(N)cc1` [Example 100, (2S) 2-N-(4-aminobenzenesulfonyl)-2-N-(2-methylbutyl)-6-N-[N'-(4-methoxybenzyl)-N'-piperonylaminocarbonyl]-2,6-diaminohexanol], the Ki in data set [1] (read-out: Ki) was > 300 nM.

Take `CC(C)CCN([C@H](CO)CCCCNC(=O)N(Cc1ccccc1)Cc1ccc2c(c1)OCO2)S(=O)(=O)c1ccc(N)cc1` [Example 101, (2S) 2-N-(4-aminobenzenesulfonyl)-2-N-(3-methylbutyl)-6-N-[N'-benzyl-N'-piperonylaminocarbonyl]-2,6-diaminohexanol]: the Ki in data set [1] (Ki) was 4.1 nM.

`CC(C)CCN([C@H](CO)CCCCNC(=O)N(Cc1ccc(F)cc1)Cc1ccc2c(c1)OCCO2)S(=O)(=O)c1ccc(N)cc1` [Example 103, (2S) 2-N-(4-aminobenzenesulfonyl)-2-N-(3-methylbutyl)-6-N-[N'-(4-fluorobenzyl)-N'-(3,4-ethylenedioxy)benzylaminocarbonyl]-2,6-diaminohexanol] yielded a Ki in data set [1] (Ki) of 5.4 nM.

Regarding `CC(C)CCN([C@H](CO)CCCCNC(=O)N(Cc1ccc2c(c1)OCO2)CC(C)C)S(=O)(=O)c1ccc(N)cc1` [Example 104, (2S) 2-N-(4-aminobenzenesulfonyl)-2-N-(3-methylbutyl)-6-N-(N'-isobutyl-N'-piperonylaminocarbonyl)-2,6-diaminohexanol], the Ki in data set [1] (Ki) turned out to be 77 nM.

In turn, `COc1cccc(CN(Cc2ccc3c(c2)OCO3)C(=S)NCCCC[C@@H](CO)N(CCC(C)C)S(=O)(=O)c2ccc(N)cc2)c1` [Example 105, (2S) 2-N-(4-aminobenzenesulfonyl)-2-N-(3-methylbutyl)-6-N-[N'-(3-methoxybenzyl)-N'-piperonylaminothiocarbonyl]-2,6-diaminohexanol] gave a Ki in data set [1] (Ki) of 2.6 nM.

For `COc1ccc(CN(Cc2ccc3c(c2)OCO3)C(=S)NCCCC[C@@H](CO)N(CCC(C)C)S(=O)(=O)c2ccc(N)cc2)cc1OC` [Example 106, (2S) 2-N-(4-aminobenzenesulfonyl)-2-N-(3-methylbutyl)-6-N-[N'-(3,4-dimethoxybenzyl)-N'-piperonylaminothiocarbonyl]-2,6-diaminohexanol], the affinity in data set [1] (Ki), expressed as Ki, was 2.9 nM.

As for `CC(C)CCN([C@H](CO)CCCCNC(=S)N(Cc1ccc(F)cc1)Cc1ccc2c(c1)OCCO2)S(=O)(=O)c1ccc(N)cc1` [Example 108, (2S) 2-N-(4-aminobenzenesulfonyl)-2-N-(3-methylbutyl)-6-N-[N"(4-fluorobenzyl)-N'-(3,4-ethylenedioxy)benzylaminothiocarbonyl]-2,6-diaminohexanol], in data set [1] (Ki), the affinity, expressed as Ki, was 9.9 nM.

Take `COc1ccc(CN(Cc2ccc3c(c2)OCO3)C(=S)NCCCC[C@@H](CO)N(CCC(C)C)S(=O)(=O)c2ccc(N)cc2)cc1` [Example 109, (2S) 2-N-(4-aminobenzenesulfonyl)-2-N-(3-methylbutyl)-6-N-[N'-(4-methoxybenzyl)-N'-piperonylaminothiocarbonyl]-2,6-diaminohexanol]: the Ki in data set [1] (Ki) came out at 3.6 nM.

Take `COc1cccc(CN(Cc2ccc3c(c2)OCO3)C(=O)NCCCC[C@@H](CO)N(CCC(C)C)S(=O)(=O)c2ccc(N)cc2)c1` [Example 110, (2S) 2-N-(4-aminobenzenesulfonyl)-2-N-(3-methylbutyl)-6-N-[N'-(3-methoxybenzyl)-N'-piperonylaminocarbonyl]-2,6-diaminohexanol]: the concentration giving a half-maximal response (EC50) in data set [2] came out at 350 nM. Moreover, affinity in data set [1] (Ki) was put at a Ki of 2.2 nM.

The values are drawn from patent EP1480941B1, “UREA DERIVATIVES AS HIV ASPARTYL PROTEASE INHIBITORS” (priority 2002, dated 2003).
